# Measurements taken from patent publication US20210401957A1, “ROBO1 CAR-NK CELL CARRYING SUICIDE GENE, PREPARATION METHOD AND APPLICATION THEREOF” (Asclepius (Suzhou) Technology Company Group Co., Ltd., priority 2019, published 2021).
# Test system: ROBO1-iCaspase9CAR-NK cells
# Assay: Apoptosis of ROBO1-iCaspase9 CAR-NK cells induced by medicament AP1903
# Assay type: cell-based, human
# Conditions: within 24 hours
# Protocol: Different amounts of medicament AP1903 were respectively added into the ROBO1 CAR-NK cells carrying the suicide gene (ATCG427B-1F7 and 2D5) after screening in Example 6 to test the effect thereof on apoptosis of the ROBO1 CAR-NK cells carrying the suicide gene (denoted with ATCG427B). Meanwhile, the medicament AP1903 was added into the ROBO1 CAR-NK cells as control, and divided into three experimental groups, i.e., cells treated by the medicament AP1903 with different concentrations (0 nM, 10 nM and 50 nM) for 2 hours, 4 hours and 24 hours. The experimental groups respectively treated for 4 hours and 24 hours were continuously cultured with fresh medium, and the cell viability was counted three days later, and the results were shown in FIG. 12. In addition, the 0 nM and 10 nM experimental groups treated for 4 hours were cultured in fresh medium for 24 hours and then photographed, and the results were shown in FIG. 13.
compound,measurement,value
CC[C@H](C(=O)N1CCCC[C@H]1C(=O)O[C@H](CCc1ccc(OC)c(OC)c1)c1cccc(OCC(=O)NCCNC(=O)COc2cccc([C@@H](CCc3ccc(OC)c(OC)c3)OC(=O)[C@@H]3CCCCN3C(=O)[C@@H](CC)c3cc(OC)c(OC)c(OC)c3)c2)c1)c1cc(OC)c(OC)c(OC)c1 [AP1903],effect of AP1903 on the control cells (printed as ROBO1-iCaspase9CAR-NK cells),has no effect
same,killing of ROBO1-iCaspase9CAR-NK cells by AP1903,can effectively kill
